Measured values from ChEMBL document CHEMBL2057106, “Α-amino-β-fluorocyclopropanecarboxylic acids as a new tool for drug development: synthesis of glutamic acid analogs and agonist activity towards metabotropic glutamate receptor 4” (Bioorg Med Chem, 2012).
Activity calls are given as the source filed them. The rule behind the calls is not given here.

Tests used:
[1] = Agonist activity at mGlu4a receptor assessed as inhibition of forskolin-stimulated cAMP production; type: functional, Homo sapiens
[2] = molecular target: Metabotropic glutamate receptor 4 (Rattus norvegicus, UniProt P31423); experiment: Agonist activity at rat mGlu4 receptor expressed in HEK293 cells coexpressing Gq/Gi and EAAC1 assessed as intracellular calcium production measured every 1.5 secs for 60 secs by Fluo-4-AM based fluorometry; type: functional, cell-based
Sequence of Metabotropic glutamate receptor 4 (P31423 whole entry): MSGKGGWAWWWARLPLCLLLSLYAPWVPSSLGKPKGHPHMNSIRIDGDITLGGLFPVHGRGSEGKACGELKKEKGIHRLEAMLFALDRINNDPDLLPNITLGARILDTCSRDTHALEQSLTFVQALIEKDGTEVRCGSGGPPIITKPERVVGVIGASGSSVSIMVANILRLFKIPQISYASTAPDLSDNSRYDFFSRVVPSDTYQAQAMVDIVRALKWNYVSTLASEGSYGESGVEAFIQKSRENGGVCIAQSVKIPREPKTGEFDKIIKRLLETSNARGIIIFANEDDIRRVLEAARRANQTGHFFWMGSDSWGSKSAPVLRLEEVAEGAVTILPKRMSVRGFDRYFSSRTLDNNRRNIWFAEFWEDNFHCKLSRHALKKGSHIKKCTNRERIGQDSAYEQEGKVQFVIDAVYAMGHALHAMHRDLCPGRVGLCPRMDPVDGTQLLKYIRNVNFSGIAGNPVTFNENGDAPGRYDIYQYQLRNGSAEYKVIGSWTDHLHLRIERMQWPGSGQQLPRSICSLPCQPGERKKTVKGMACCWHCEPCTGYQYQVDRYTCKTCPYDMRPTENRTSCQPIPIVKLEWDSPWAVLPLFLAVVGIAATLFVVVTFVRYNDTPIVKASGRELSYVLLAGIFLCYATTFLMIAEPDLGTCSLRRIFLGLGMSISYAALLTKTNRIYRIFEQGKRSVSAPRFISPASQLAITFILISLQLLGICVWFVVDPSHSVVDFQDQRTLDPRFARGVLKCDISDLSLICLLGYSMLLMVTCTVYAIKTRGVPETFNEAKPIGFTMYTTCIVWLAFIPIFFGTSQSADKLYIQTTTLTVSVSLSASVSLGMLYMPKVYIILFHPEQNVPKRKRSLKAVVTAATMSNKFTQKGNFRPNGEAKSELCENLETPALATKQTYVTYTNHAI

[3] = molecular target: Metabotropic glutamate receptor 4 (Rattus norvegicus) (UniProt P31423); experiment: Ratio of glutamate EC50 to compound EC50 for rat mGlu4 receptor expressed in HEK293 cells; type: cell-based
Sequence of Metabotropic glutamate receptor 4 (Rattus norvegicus) (P31423 whole entry): as above

[4] = molecular target: Metabotropic glutamate receptor 4 (Rattus norvegicus) (UniProt P31423); experiment: Agonist activity at rat mGlu4 receptor expressed in HEK293 cells coexpressing Gq/Gi and EAAC1 assessed as intracellular calcium production at 100 uM measured every 1.5 secs for 60 secs by Fluo-4-AM based fluorometry; type: functional, cell-based
[5] = molecular target: Metabotropic glutamate receptor 4 (Rattus norvegicus) (UniProt P31423); experiment: Ratio of (E)APCPr EC50 to compound EC50 for rat mGlu4 receptor expressed in HEK293 cells; type: cell-based

SMILES | EC50 [2] | also measured
N[C@@H](CCP(=O)(O)O)C(=O)O | – | EC50 [1]: 0.43 µM
N[C@@]1(C(=O)O)C[C@@]1(F)C(O)P(=O)(O)O (mixture of isomers) | 1400 µM | –
N[C@]1(C(=O)O)C[C@@]1(F)CP(=O)(O)O (racemic) | 0.34 µM | Ratio EC50 [3]: 10; Activity [4]: Active; Ratio EC50 [5]: 7
N[C@]1(C(=O)O)C[C@H]1CP(=O)(O)O (racemic) | – | EC50 [1]: 7.9 µM

Continued, in another order:

EC50 [2] | SMILES | also measured
609 µM | N[C@]1(C(=O)O)C[C@@]1(F)CCC(=O)O (racemic) | –
465 µM | N[C@]1(C(=O)O)C[C@@]1(F)CC(=O)O (racemic) | –
85.6 µM | N[C@]1(C(=O)O)C[C@@]1(F)CS(=O)(=O)O (racemic) | –
2.88 µM | N[C@@H](CCC(=O)O)C(=O)O [GLUTAMIC ACID] | –
